Molecular target: T1, AR (Homo sapiens, UniProt P10275)
T1 construct: expressed in transfected cells; host or cells: CV1 cells
T1 sequence (P10275 1-920): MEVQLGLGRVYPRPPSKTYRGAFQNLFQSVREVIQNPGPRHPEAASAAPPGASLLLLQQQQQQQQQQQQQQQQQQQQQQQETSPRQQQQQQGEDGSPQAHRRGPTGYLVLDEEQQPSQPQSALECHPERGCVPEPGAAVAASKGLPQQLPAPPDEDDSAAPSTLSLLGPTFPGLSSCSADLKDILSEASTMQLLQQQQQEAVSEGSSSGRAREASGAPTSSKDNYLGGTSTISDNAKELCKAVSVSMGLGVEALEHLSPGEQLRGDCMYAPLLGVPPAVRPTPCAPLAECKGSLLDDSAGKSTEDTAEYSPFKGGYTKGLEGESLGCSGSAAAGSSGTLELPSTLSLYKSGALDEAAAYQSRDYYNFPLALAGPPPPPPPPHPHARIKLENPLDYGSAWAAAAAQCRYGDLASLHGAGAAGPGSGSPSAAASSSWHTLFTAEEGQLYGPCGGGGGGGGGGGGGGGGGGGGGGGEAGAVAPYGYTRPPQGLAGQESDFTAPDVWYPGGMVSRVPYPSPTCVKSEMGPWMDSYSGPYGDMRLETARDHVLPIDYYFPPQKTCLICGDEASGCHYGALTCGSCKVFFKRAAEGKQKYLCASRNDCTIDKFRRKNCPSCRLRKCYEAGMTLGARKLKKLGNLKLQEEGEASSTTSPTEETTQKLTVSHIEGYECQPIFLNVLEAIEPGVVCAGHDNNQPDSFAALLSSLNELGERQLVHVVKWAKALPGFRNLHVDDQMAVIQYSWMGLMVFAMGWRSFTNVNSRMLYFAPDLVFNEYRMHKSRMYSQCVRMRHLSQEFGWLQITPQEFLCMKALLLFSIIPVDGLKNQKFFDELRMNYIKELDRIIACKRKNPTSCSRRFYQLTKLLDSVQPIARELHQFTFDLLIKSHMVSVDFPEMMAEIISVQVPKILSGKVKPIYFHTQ
Assay: Reporter gene assay, AR transcriptional (MMTV-Luc) in CV1 cells
Assay type: cell-based
Conditions: pcDNA-AR + MMTV-Luc, 0.1 nM R1881 plus test compound, 24 hrs, read-out: B1 = AR transcriptional IC50 (μM) in CV1 cells
Summary of the method: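 CV1 cells transiently co-transfected with human AR, MMTV-Luc reporter and Renilla-Luc (transfection efficiency and toxicity read-out), then stimulated 24 h with 0.1 nM R1881 plus increasing test compound concentrations. Firefly and Renilla luciferase quantified by dual-luciferase assay; IC50 derived from concentration-response.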

Row | IC50 [µM] | Compound
1 | 4.4 | O=C1CCCC2=C1C(c1ccc([N+](=O)[O-])cc1)c1c(ccc3ccccc13)N2 (stereo not drawn) [Compound A1, 12-(4-nitrophenyl)-8,9,10,12-tetrahydrobenzo[a]acridin-11(7H)-one]
2 | 2.6 | CC1CC(=O)C2=C(C1)Nc1ccc3ccccc3c1C2c1ccc(F)cc1 (stereo not drawn) [Compound A4]
3 | 5.7 | O=C1CCCC2=C1Nc1ccc3ccccc3c1C2c1ccc([N+](=O)[O-])cc1 (stereo not drawn) [Compound A10]

Reference: US20180303807A1, “ANDROGEN RECEPTOR LIGANDS” (DUKE UNIVERSITY, priority 2015, published 2018)
